Reference: PubChem BioAssay (NCI)
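A five-concentration, 48-hour dose response in 96-well plates underlies each endpoint, interpolated linearly between surrounding concentrations. At the GI50, growth is halved. TGI: concentration producing complete growth inhibition.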

Columns and labels:
Experiment in all cases: growth of human tumour cells (NCI), 48 h
[1] = system: DU-145 prostate
[2] = system: HCC-2998 colon
[3] = system: HS 578T breast
[4] = system: IGROV1 ovarian
[5] = system: KM12 colon
[6] = system: NCI-H522 lung
[7] = system: PC-3 prostate
[8] = system: RPMI-8226 leukemia
[9] = system: A549 NSCLC
[10] = system: ACHN renal

Structure (SMILES)	GI50 [1] [µM]	TGI [1] [µM]	GI50 [2] [µM]	TGI [2] [µM]	GI50 [3] [µM]	TGI [3] [µM]	GI50 [4] [µM]	TGI [4] [µM]	GI50 [5] [µM]	TGI [5] [µM]	GI50 [6] [µM]	TGI [6] [µM]	GI50 [7] [µM]	GI50 [8] [µM]	TGI [8] [µM]	TGI [9] [µM]	TGI [10] [µM]	GI50 [9] [µM]	GI50 [10] [µM]	TGI [7] [µM]
C[C@]12C[C@H](CCCCCCNCCOC(=O)NCCCc3ccc(N(CCCl)CCCl)cc3)C3=C4CCC(=O)C=C4CCC3C1CC[C@@H]2O (stereo not given in full)	0.454	1.93	1.81	3.23	1.66	4.61	0.334	2.11	1.87	> 21.6	1.63	3.18	1.17	0.304	1.06	–	–	–	–	–
O=C(O)C1=C(O)C(C(=O)O)C23CCCCCCCCCCC12C(C(=O)O)C(O)=C3C(=O)O (stereo not given)	–	–	–	> 100	–	–	–	> 100	–	> 100	–	> 100	–	–	> 100	> 100	> 100	–	–	–
CCOC(=O)/C(C=Nc1ccc(-c2nc3ccccc3[nH]2)cc1)=C(/C)O	10.1	33.3	–	–	11.4	30.5	7.35	16.2	7.8	24	10.7	26.4	27.2	8.12	40.1	29.9	42.4	12	15.4	> 50
COC12C=C/C(=C(/C(=O)OCc3cncnc3)C(=O)CCCCCCCCC3(OC)C=C/C(=C(/C(=O)OCc4cncnc4)C(=O)CCCCCCCC1)O3)O2	0.5	2.55	0.821	1.61	1.3	6.24	0.589	1.96	0.305	1.28	0.137	0.408	–	0.207	3.55	2.24	1.08	0.848	0.36	–
Cc1nnn[n-]1.N.N.N.N.N.[Cl-].[Co+3]	–	–	> 100	> 100	–	–	2.88	85	> 100	> 100	> 100	> 100	–	> 100	> 100	> 100	> 100	> 100	> 100	–
COC(=O)c1ccc(-c2nc3cc(Cl)c(Cl)cc3nc2C#N)cc1	> 100	> 100	> 100	> 100	–	–	> 100	> 100	> 100	> 100	> 100	> 100	> 100	–	–	> 100	> 100	> 100	> 100	> 100
CN(O)C(=O)SCC(NC(=O)CCC(N)C(=O)O)C(=O)NCC(=O)O (stereo not given)	–	–	–	> 2	–	–	> 2000	> 2000	> 2	> 2000	> 2000	> 2000	–	> 2000	> 2000	> 2000	> 2000	> 2000	> 2000	–
CCOC(=O)C12CCCC1(O)N(NC(=O)OC(C)(C)C)C(C)=C2C(=O)OC (stereo not given)	–	–	–	> 100	–	–	–	> 100	–	> 100	–	> 100	–	–	> 100	> 100	> 100	–	–	–
COC1=C(N)C(=O)c2nc(C)ccc2C1=O	–	–	–	14.5	–	–	–	23.3	–	3.68	–	3.21	–	–	> 40.8	4.57	3.27	–	–	–
CC1(C)O[C@H]2[C@H](O)C[C@](O)(CO)C[C@H]2O1	–	–	–	–	–	–	–	> 100	–	> 100	–	> 100	–	–	> 100	> 100	> 100	–	–	–
COc1ccc(C(=S)N2CCN(c3cccc(C)c3)CC2)cc1OC	4.59	> 100	5.41	> 100	3.16	31.7	–	–	2.82	> 100	–	–	–	–	–	> 100	> 100	6.37	5.92	–
O=[N+]([O-])c1ccc(C[P+](c2ccccc2)(c2ccccc2)c2ccccc2)cc1	–	–	–	> 100	–	–	–	> 100	–	> 100	–	> 100	–	–	> 100	> 100	> 100	–	–	–
O=C(COc1ccc(Cl)cc1)N1N=C(c2ccc(Cl)cc2)CC1(O)c1ccccc1 (stereo not given)	–	–	–	> 100	–	–	–	61.6	–	31.4	–	50.2	–	–	> 37.6	34.7	> 100	–	–	–
O/N=C1/C(=C/c2ccc3c(c2)OCO3)CCCC1C(NO)c1ccc2c(c1)OCO2 (stereo not given)	–	–	–	55.5	–	–	–	86.5	–	43.6	–	40.2	–	–	40.9	95.4	> 100	–	–	–
COc1cc(C(O)CCBr)c(OC)cc1C (stereo not given)	–	> 100	–	–	–	> 89.4	–	> 100	–	> 86.7	–	> 66.3	–	–	> 100	> 100	> 100	–	–	> 73
COC(=O)NC(=O)c1cn(C2OC(CO)C(O)C2O)c(=O)[nH]c1=O (stereo not given)	–	–	–	> 100	–	–	–	> 100	–	> 100	–	> 100	–	–	> 100	> 100	> 100	–	–	–
Cc1cc(CC(=O)NCCO)n(CCO)c(=O)c1	–	–	–	> 100	–	–	–	> 100	–	> 100	–	> 100	–	–	–	> 100	> 100	–	–	–
CC1=C(C(=O)Nc2cc(=O)n(C)c(=O)n2C)C(c2ccco2)C(C(=O)Nc2cc(=O)n(C)c(=O)n2C)=C(C)N1	–	–	–	> 100	–	–	–	> 100	–	> 100	–	> 100	–	–	> 100	> 100	> 100	–	–	–
Cc1c2ccncc2c(C)c2c1[nH]c1ccc(OC(C)C)cc12	–	–	–	3.48	–	–	–	2.79	–	2.86	–	3.06	–	–	5.12	3.1	2.56	–	–	–
Cc1cccc(/C=C/c2c(C(=O)/C=C/c3ccccc3)c(C)nc3ccccc23)c1	–	–	1.73	3.49	–	–	1.44	4	1.72	3.56	–	–	–	–	–	4.76	2.97	1.91	1.62	–
